Experimental data from patent US20230364194A1, “GLP-1R/GCGR Dual Target Agonist Polypeptide Derivative for Treatment of Hepatic Fibrosis Associated with Viral Hepatitis” (Shenzhen Turier Biotech. Co., Ltd., priority 2020, published 2023).
Starred links: 1 amine or outer side, 2 acyl side, 3 side chain; linkers in the order of their positions; H or OH if unused. Non-standard residues stand in square brackets, D forms with d. Groups on a side chain read outwards from the residue. Primed or numbered codes have the meaning given here. No end group written: not given here. *: point of attachment. C18 diacid = O=C(O)CCCCCCCCCCCCCCCCC(=O)*; γGlu = O=C(O)[C@H](CCC(=O)[*:2])N[*:1]; Stearoyl = CCCCCCCCCCCCCCCCCC(=O)*; Palmitoyl = CCCCCCCCCCCCCCCC(=O)*; PEG2′ = not defined here; Aib = CC(C)(N)C(=O)O

Assays:
[1] = tested on: HBV-infected humanized mouse liver; experiment: Hepatic fibrosis of HBV-infected humanized mouse (hepatitis virus-infected humanized mouse fibrosis model); type: in vivo; conditions: 40 ug/Kg, intraperitoneal injection, once every other day for 3 weeks; for Accumulation of collagen fibers (FG/SR staining of liver) / Hepatic fibrosis and inflammation level (FG/SR and H&E staining of liver): compared with control group without administration; for Serum ALT: versus before administration
Protocol: In order to study the effect of the polypeptide compounds of the present invention in hepatic fibrosis associated with viral hepatitis, the polypeptide compounds of the present invention were used for hepatic fibrosis of HBV-infected humanized mouse. […] The specific steps are shown as follows:
Forty newborn NOD-scid IL-2Rγ-/- (NIKO) mice were bred.
These mice were injected with human stem cells for humanization (2 weeks).
Referring to FIG. 10, blood samples were taken to determine the humanization level by flow cytometry. All the mice used in the experiment expressed humanization according to in vivo concentrations of CD4 and CD8.
The mice were divided into 8 groups, fed with high-fat diet and infected with HBV (1 week).
The development of fibrosis in mice was monitored (8-10 weeks).
The polypeptide compounds 2, 5, 11, 15, 20, 23 and 25 were selected, which were stored at -20° C.
The above 40 mice were divided into 8 groups for injection treatment, with grouping and injection administration as follows: blank model control group (CTR), physiological saline, intraperitoneal injection, n=5. • 1) Administration group, polypeptide compound 2, 40 ug/Kg, intraperitoneal injection, n=5. • 2) Administration group, polypeptide compound 5, 40 ug/Kg, intraperitoneal injection, n=5. • 3) Administration group, polypeptide compound 11, 40 ug/Kg, intraperitoneal injection, n=5. • 4) Administration group, polypeptide compound 15, 40 ug/Kg, intraperitoneal injection, n=5. • 5) Administration group, polypeptide compound 20, 40 ug/Kg, intraperitoneal injection, n=5. • 6) Administration group, polypeptide compound 23, 40 ug/Kg, intraperitoneal injection, n=5. • 7) Administration group, polypeptide compound 25, 40 ug/Kg, intraperitoneal injection, n=5.
They were injected once every other day for 3 weeks.
After 3 weeks of administration, the mice were sacrificed to take samples for subsequent bioassay experiments. The serum samples from the mice were used for ALT and human IFNγ tests. Paraffin sections were prepared from partial liver tissues of the mice and stained with hematoxylin-eosin (H&E), […]/Sirius red (FG/SR) and immunohistochemical fluorescence (α-SMA), and statistics were made with Image-pro plus, Graph pad and similar software.
In the HBV induced hepatic fibrosis model, its characteristics are: inflammatory cell infiltration around the central vein area, hydropic degeneration of hepatocytes, and increased accumulation of collagen fibers in the portal area and the hepatic interlobular septum. After 3 weeks of administration, the mice were sacrificed to take samples. Blood was taken from the retrobulbar vein for detection of serological indicators, and liver tissues were taken for pathological analysis.

[2] = tested on: Hepatic stellate cell strain LX-2; experiment: In vitro effect on expression of LX-2 cell activation marker α-SMA (Western Blot, β-actin reference); type: cell-based; conditions: LX-2 cells, 10.0 uM, 48 hours, negative control = 100%
Source text: Hepatic stellate cell strain LX-2 (from China Center for Type Culture Collection, Shanghai) was selected to study and observe the effects of polypeptide compounds 1-25 on the expression level of LX-2 cell activation marker α-smooth muscle actin (α-SMA). The control group was given the same volume of Dulbecco’s modified Eagle medium (DMEM) (from Gibco, United States), and β-actin (from TransGen Biotech) as the endogenous reference, wherein, α-SMA is a symbolic feature that distinguishes […] from myofibroblasts.
Hepatic stellate cell LX-2 was laid on 35 mm cell culture plate, cultured with DMEM (high glucose)+10% FBS+1% double-antibody culture medium (Thermo Fisher), placed overnight when the cells grew to 70% convergence at 37° C. under the condition of 5% CO2 without serum, and treated with the above GLP-1R/GCGR dual target agonist polypeptide derivatives (namely, polypeptide compounds 1-25) (dissolved in PBS) for 48 hours from the next morning to extract cell protein, and then Western Blot was performed with β-actin as endogenous reference to analyze the expression levels of α-SMA and β-actin by gray-scale analysis using Image J 1.50i. PBS with the same volume as that in experimental group was added in negative control.
The above polypeptide compounds 1-25 with a concentration of 10.0 µM were added, showing that they could reduce the expression of α-SMA at the concentration of 10.0 µM; and the negative control had no effect on the expression of α-SMA (referring to Table 2).
The integrated gray scale of α-SMA/β-actin in the negative control group was considered to be 100% to analyze the in vitro inhibitory activity on hepatic fibrosis by tested polypeptides.

Substance | α-SMA expression in liver tissues (IF staining) [1] | Accumulation of collagen fibers (FG/SR staining of liver) [1] | Hepatic fibrosis and inflammation level (FG/SR and H&E staining of liver) [1] | Serum ALT [1] | Relative expression of α-SMA (α-SMA/β-actin, %) [2] [%]
His-(D-Ser)-Gln-Gly-Thr-Phe-Thr-Ser-Asp-Tyr-Ser-Lys-Tyr-Leu-Asp-Glu-Lys-Ala-Ala-Lys(PEG2-PEG2-yGlu- CO(CH2)16CH3)-Glu-Phe-Ile-Glu-Trp-Leu-Leu-Arg-Gly-Gly- Gly-Pro-Ser-Ser-Gly-Ala-Pro-Pro-Pro-Ser-NH2 (H[dS]QGTFTSDYSKYLDEKAAK([PEG2′-PEG2′-γGlu-Stearoyl])EFIEWLLRGGGPSSGAPPPS-NH2) [Compound 11] | significantly inhibited | significantly inhibited the accumulation of collagen fibers | decreased the hepatic fibrosis and inflammation level | decreased from that before administration | 35.78
His-(D-Ser)-Gln-Gly-Thr-Phe-Thr-Ser-Asp-Tyr-Ser-Lys-Tyr-Leu-Asp-Lys(PEG2-PEG2-γGlu-CO(CH2)14CH3)-Arg-Arg-Ala- Gln-Asp-Phe-Val-Gln-Trp-Leu-Leu-Asn-Thr-Gly-Gly-Pro-Ser-Ser-Gly-Ala-Pro-Pro-Pro-Ser-NH2 (H[dS]QGTFTSDYSKYLDK([PEG2′-PEG2′-γGlu-Palmitoyl])RRAQDFVQWLLNTGGPSSGAPPPS-NH2) [Compound 23] | significantly inhibited | significantly inhibited the accumulation of collagen fibers | decreased the hepatic fibrosis and inflammation level | decreased from that before administration | 36.15
His-(D-Ser)-Gln-Gly-Thr-Phe-Thr-Ser-Asp-Tyr-Ser-Lys-Tyr-Leu-Asp-Glu-Lys(PEG2-PEG2-γGlu-CO(CH2)16CO2H)-Arg- Ala-Gln-Asp-Phe-Val-Gln-Trp-Leu-Met-Asn-Thr-Gly-Gly-Pro-Ser-Ser-Gly-Ala-Pro-Pro-Pro-Ser-NH2 (H[dS]QGTFTSDYSKYLDEK([PEG2′-PEG2′-γGlu-C18 diacid])RAQDFVQWLMNTGGPSSGAPPPS-NH2) [Compound 2] | significantly inhibited | significantly inhibited the accumulation of collagen fibers | decreased the hepatic fibrosis and inflammation level | decreased from that before administration | 34.65
His-(D-Ser)-Gln-Gly-Thr-Phe-Thr-Ser-Asp-Tyr-Ser-Lys-Tyr-Leu-Asp-Lys(PEG2-PEG2-CO(CH2)14CH3)-Arg-Arg-Ala-Gln- Asp-Phe-Val-Gln-Trp-Leu-Leu-Asn-Thr-Gly-Gly-Pro-Ser-Ser-Gly-Ala-Pro-Pro-Pro-Ser-NH2 (H[dS]QGTFTSDYSKYLDK([PEG2′-PEG2′-Palmitoyl])RRAQDFVQWLLNTGGPSSGAPPPS-NH2) [Compound 25] | significantly inhibited | significantly inhibited the accumulation of collagen fibers | decreased the hepatic fibrosis and inflammation level | decreased from that before administration | 39.17
His-(D-Ser)-Gln-Gly-Thr-Phe-Thr-Ser-Asp-Tyr-Ser-Lys-Tyr-Leu-Asp-Lys(PEG2-PEG2-yGlu-CO(CH2)14CH3)-Arg-Arg-Ala- Gln-Asp-Phe-Val-Gln-Trp-Leu-Nle-Asn-Thr-Gly-Gly-Pro-Ser-Ser-Gly-Ala-Pro-Pro-Pro-Ser-NH2 (HXQGTFTSDYSKYLDKRRAQDFVQWLXNTGGPSSGAPPPS; D-Ser; Nle; PEG2-PEG2-γGlu-palmitoyl lipidation; C-terminal amide; (2)..(2) Xaa=D-Ser; (16)..(16) A side chain of Lys is linked to -PEG2-PEG2-AGlu-CO(CH2)14CH3; (27)..(27) Xaa=Nle) [Compound 20] | significantly inhibited | significantly inhibited the accumulation of collagen fibers | decreased the hepatic fibrosis and inflammation level | decreased from that before administration | 32.58
His-(D-Ser)-Gln-Gly-Thr-Phe-Thr-Ser-Asp-Tyr-Ser-Lys-Tyr-Leu-Asp-Glu-Lys-Ala-Ala-Lys(PEG2-PEG2-γGlu- CO(CH2)14CH3)-Glu-Phe-Ile-Glu-Trp-Leu-Leu-Asn-Gly-Gly- Gly-Pro-Ser-Ser-Gly-Ala-Pro-Pro-Pro-Ser-NH2 (H[dS]QGTFTSDYSKYLDEKAAK([PEG2′-PEG2′-γGlu-Palmitoyl])EFIEWLLNGGGPSSGAPPPS-NH2) [Compound 15] | significantly inhibited | significantly inhibited the accumulation of collagen fibers | decreased the hepatic fibrosis and inflammation level | decreased from that before administration | 37.25
His-Aib-Gln-Gly-Thr-Phe-Thr-Ser-Asp-Lys(PEG2-PEG2-yGlu- CO(CH2)16CO2H)-Ser-Lys-Tyr-Leu-Asp-Glu-Arg-Arg-Ala- Gln-Asp-Phe-Val-Gln-Trp-Leu-Leu-Asp-Gly-Gly-Gly-Pro-Ser-Ser-Gly-Ala-Pro-Pro-Pro-Ser-NH2 (H[Aib]QGTFTSDK([PEG2′-PEG2′-γGlu-C18 diacid])SKYLDERRAQDFVQWLLDGGGPSSGAPPPS-NH2) [Compound 5] | significantly inhibited | significantly inhibited the accumulation of collagen fibers | decreased the hepatic fibrosis and inflammation level | decreased from that before administration | 37.04
